From patent US20250122181A1, “BENZIMIDAZOLES AS MODULATORS OF IL-17” (Janssen Pharmaceutica NV, priority 2021, published 2025) come the findings set out here.

Where only a bound is given, the exact number is not on record here.

The target in test [1] is IL-17A(FLAG-Tagged): IL-17RA(His-Tagged) (Homo sapiens, UniProt Q16552, K93Q). The test is described as follows: IL-17A(FLAG-Tagged): IL-17RA(His-Tagged) Binding Disruption Eu-HTRF Assay, Protocol 1. The following applies: Protocol 1, FLAG tagged IL-17A 2.5 nM; simple average if tested more than once. The method in brief: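 IC50 came from a one-site competition fit of the acceptor/donor (665/620 nm) HTRF ratio. His-tagged IL-17RA, Eu-anti-FLAG and D2-anti-His were added after a 1 h rt compound preincubation with FLAG-tagged IL-17A dimer in PBS/0.01% Triton X-100, followed by 2 h at rt before reading.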
UniProt Q16552, sequence (Q16552 with tags, fused parts or gaps K93Q): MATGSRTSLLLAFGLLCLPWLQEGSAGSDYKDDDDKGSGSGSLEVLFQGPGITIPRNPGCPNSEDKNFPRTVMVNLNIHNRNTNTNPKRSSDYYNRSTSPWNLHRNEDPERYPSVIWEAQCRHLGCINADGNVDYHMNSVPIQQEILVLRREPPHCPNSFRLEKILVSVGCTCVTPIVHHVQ

In test [2] the test system is IL-17A-induced G-CSF production in human normal keratinocyte (NHK). The experiment in a line: NHK Assay: IL-17A-induced G-CSF production in human normal keratinocyte. It is filed as cell-based. The following applies: 24 h, IL-17A 5 ng/mL, simple average if tested more than once. The method in brief:
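Stimulus rhIL-17A 5 ng/mL final, premixed 1 h rt with compound; adult NHK, 5% FBS, 0.2% DMSO. Viability by CellTiter-Glo vs DMSO.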

Consider `COC[C@H](c1ccc2[nH]c([C@@H](NC(=O)c3nonc3C)[C@@H](C)O[C@@H](C)C(F)(F)F)nc2c1)N1C[C@@H](C(F)(F)F)NC1=O` [Example 62, N-((1R,2R)-1-(5-((S)-2-Methoxy-1-((S)-2-oxo-4-(trifluoromethyl)imidazolidin-1-yl)ethyl)-1H-benzo[d]imidazol-2-yl)-2-(((S)-1,1,1-trifluoropropan-2-yl)oxy)propyl)-4-methyl-1,2,5-oxadiazole-3-carboxamide], for which the IC50 in test [1] is < 50 nM; in test [2] (Homo sapiens, Keratinocyte), < 50 nM.

On to `CC(C)n1nccc1C(=O)N[C@@H](COC(C)(C)C(F)(F)F)c1nc2nc(CN3C[C@@H](C(F)(F)F)NC3=O)ccc2[nH]1` (relative stereo) [Example 37, 1-Isopropyl-N—((R*)-1-(5-(((S*)-2-oxo-4-(trifluoromethyl)imidazolidin-1-yl)methyl)-1H-imidazo[4,5-b]pyridin-2-yl)-2-((1,1,1-trifluoro-2-methylpropan-2-yl)oxy)ethyl)-1H-pyrazole-5-carboxamide], for which the IC50 in test [1] is > 100 nM; in test [2] (Homo sapiens, Keratinocyte), > 100 nM.

Consider `C[C@H](O[C@H](C)C(NC(=O)c1ccnn1C)c1nc2cc([C@@H](C3CC3)N3C[C@@H](C(F)(F)F)NC3=O)ccc2[nH]1)C(F)(F)F` (single isomer, unassigned) [Example 14, N-((1R*,2R)-1-(5-((R)-Cyclopropyl((S)-2-oxo-4-(trifluoromethyl)imidazolidin-1-yl)methyl)-1H-benzo[d]imidazol-2-yl)-2-(((S)-1,1,1-trifluoropropan-2-yl)oxy)propyl)-1-methyl-1H-pyrazole-5-carboxamide], for which the IC50 in test [1] is < 50 nM; in test [2] (Homo sapiens, Keratinocyte) it was < 50 nM.

As for `CC(C)n1nccc1C(=O)NC(c1nc2cc([C@@H](C3CC3)N3C[C@@H](C(F)(F)F)NC3=O)ccc2[nH]1)[C@@H](C)O[C@@H](C)C(F)(F)F` (single isomer, unassigned) [Example 15, N-((1R*,2R)-1-(5-((R)-Cyclopropyl((S)-2-oxo-4-(trifluoromethyl)imidazolidin-1-yl)methyl)-1H-benzo[d]imidazol-2-yl)-2-(((S)-1,1,1-trifluoropropan-2-yl)oxy)propyl)-1-isopropyl-1H-pyrazole-5-carboxamide], the IC50 in test [1] was < 50 nM; in test [2] (Homo sapiens, Keratinocyte) it was < 50 nM.

For `COC[C@H](c1ccc2[nH]c(C(COC(C)(C)C(F)(F)F)NC(=O)c3nonc3C3CC3)nc2c1)N1C[C@@H](C(F)(F)F)NC1=O` (single isomer, unassigned) [Example 47, 4-Cyclopropyl-N—((R*)-1-(5-((S)-2-methoxy-1-((S)-2-oxo-4-(trifluoromethyl)imidazolidin-1-yl)ethyl)-1H-benzo[d]imidazol-2-yl)-2-((1,1,1-trifluoro-2-methylpropan-2-yl)oxy)ethyl)-1,2,5-oxadiazole-3-carboxamide], the IC50 in test [1] is < 50 nM; in test [2] (Homo sapiens, Keratinocyte), < 50 nM.

Consider `CC(C)n1nccc1C(=O)N[C@@H](COC(C)(C)C(F)(F)F)c1nc2nc(CN3C[C@H](C(F)(F)F)NC3=O)ccc2[nH]1` (relative stereo) [Example 36, 1-Isopropyl-N—((R*)-1-(5-(((R*)-2-oxo-4-(trifluoromethyl)imidazolidin-1-yl)methyl)-1H-imidazo[4,5-b]pyridin-2-yl)-2-((1,1,1-trifluoro-2-methylpropan-2-yl)oxy)ethyl)-1H-pyrazole-5-carboxamide], for which the IC50 in test [1] is < 50 nM; in test [2] (Homo sapiens, Keratinocyte), < 50 nM.

For the molecule `[2H]C1([2H])[C@@H](C(F)(F)F)NC(=O)N1[C@@H](c1ccc2[nH]c([C@@H](NC(=O)c3nonc3C)[C@@H](C)O[C@@H](C)C(F)(F)F)nc2c1)C1CC1` (relative stereo) [Example 12, N-((1R*,2R)-1-(5-((R)-Cyclopropyl((S*)-2-oxo-4-(trifluoromethyl)imidazolidin-1-yl-5,5-d2)methyl)-1H-benzo[d]imidazol-2-yl)-2-(((S)-1,1,1-trifluoropropan-2-yl)oxy)propyl)-4-methyl-1,2,5-oxadiazole-3-carboxamide], the IC50 in test [1] and in test [2] was < 50 nM in each case.

With `CC(C)(OC[C@H](NC(=O)c1nonc1C1CC1)c1nc2cc(CN3C[C@](C)(C(F)(F)F)NC3=O)ccc2[nH]1)C(F)(F)F` (relative stereo) [Example 60, 4-Cyclopropyl-N—((R*)-1-(5-(((R*)-4-methyl-2-oxo-4-(trifluoromethyl)imidazolidin-1-yl)methyl)-1H-benzo[d]imidazol-2-yl)-2-((1,1,1-trifluoro-2-methylpropan-2-yl)oxy)ethyl)-1,2,5-oxadiazole-3-carboxamide], the IC50 in test [1] was < 50 nM; in test [2] (Homo sapiens, Keratinocyte), < 50 nM.

In the case of `CC(C)n1ncnc1C(=O)N[C@@H](COC(C)(C)C(F)(F)F)c1nc2cc([C@@H](C3CC3)N3C[C@@H](C(F)(F)F)NC3=O)ccc2[nH]1` [Example 5, N—((R)-1-(5-((R)-Cyclopropyl((S)-2-oxo-4-(trifluoromethyl)imidazolidin-1-yl)methyl)-1H-benzo[d]imidazol-2-yl)-2-((1,1,1-trifluoro-2-methylpropan-2-yl)oxy)ethyl)-1-isopropyl-1H-1,2,4-triazole-5-carboxamide], the IC50 in test [1] was < 50 nM; in test [2] (Homo sapiens, Keratinocyte) it was < 50 nM.

In the case of `CC(C)n1nccc1C(=O)N[C@@H](COC(C)(C)C(F)(F)F)c1nc2ccc(CN3CC(F)(F)CNC3=O)cc2[nH]1` [Example 29, (R)—N-(1-(6-((5,5-Difluoro-2-oxotetrahydropyrimidin-1(2H)-yl)methyl)-1H-benzo[d]imidazol-2-yl)-2-((1,1,1-trifluoro-2-methylpropan-2-yl)oxy)ethyl)-1-isopropyl-1H-pyrazole-5-carboxamide], the IC50 was < 50 nM in test [1] and < 50 nM in test [2] (Homo sapiens, Keratinocyte).

Regarding `Cc1nonc1C(=O)NC(c1nc2cc([C@@H](C3CC3)N3C[C@@H](C(F)(F)F)NC3=O)ccc2[nH]1)[C@@H](C)O[C@@H](C)C(F)(F)F` (single isomer, unassigned) [Example 13, N-((1R*,2R)-1-(5-((R)-Cyclopropyl((S)-2-oxo-4-(trifluoromethyl)imidazolidin-1-yl)methyl)-1H-benzo[d]imidazol-2-yl)-2-(((S)-1,1,1-trifluoropropan-2-yl)oxy)propyl)-4-methyl-1,2,5-oxadiazole-3-carboxamide], the IC50 was < 50 nM in test [1] and < 50 nM in test [2] (Homo sapiens, Keratinocyte).

Turning to `COC[C@H](c1ccc2[nH]c(C(COC(C)(C)C(F)(F)F)NC(=O)c3nonc3C)nc2c1)N1CC(F)(F)CNC1=O` (single isomer, unassigned) [Example 34, N—((R*)-1-(5-((S)-1-(5,5-Difluoro-2-oxotetrahydropyrimidin-1(2H)-yl)-2-methoxyethyl)-1H-benzo[d]imidazol-2-yl)-2-((1,1,1-trifluoro-2-methylpropan-2-yl)oxy)ethyl)-4-methyl-1,2,5-oxadiazole-3-carboxamide], the IC50 in test [1] is < 50 nM; in test [2] (Homo sapiens, Keratinocyte), < 50 nM.

Take `COCC(c1ccc2[nH]c([C@H](COC(C)(C)C(F)(F)F)NC(=O)c3nonc3C)nc2c1)N1CC(C)(C)NC1=O` (single isomer, unassigned) [Example 48, N—((R)-1-(5-((R*)-1-(4,4-Dimethyl-2-oxoimidazolidin-1-yl)-2-methoxyethyl)-1H-benzo[d]imidazol-2-yl)-2-((1,1,1-trifluoro-2-methylpropan-2-yl)oxy)ethyl)-4-methyl-1,2,5-oxadiazole-3-carboxamide]: the IC50 in test [1] is < 50 nM; in test [2] (Homo sapiens, Keratinocyte) it was < 50 nM.
